Assay results as given in EP2987533B1, “7-substituted piperazin-1-yl fluoroquinolone compounds, their use in the treatment of cancer, pharmaceutical compositions and a method for preparation” (priority 2014, dated 2016).

How the values were obtained:
Assay in all cases: NCI one-dose SRB growth assay
Format in all cases: cell-based
[1] = tested on: SF-539; settings: Homo sapiens; SF-539 (CNS Cancer), 10^-5 M, 48 h; read-out: % Growth Inhibition (GI %)
How it was run: (§1)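 Screening used the NCI Drug Evaluation Branch protocol on roughly 60 human cancer cell lines. Compound exposure: 10^-5M, 48 h. Cell mass quantified by sulforhodamine B binding, read by spectrophotometer, reported as % growth compared with untreated control.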

[2] = tested on: M14; settings: Homo sapiens; M14 (Melanoma), 10^-5 M, 48 h; read-out: % Growth Inhibition (GI %)
How it was run: as §1

[3] = tested on: SK-MEL-28; settings: Homo sapiens; SK-MEL-28 (Melanoma), 10^-5 M, 48 h; read-out: % Growth Inhibition (GI %)
How it was run: as §1

[4] = tested on: SNB-19; settings: Homo sapiens; SNB-19 (CNS Cancer), 10^-5 M, 48 h; read-out: % Growth Inhibition (GI %)
How it was run: as §1

[5] = tested on: K-562; settings: Homo sapiens, K562; K-562 (Leukemia), 10^-5 M, 48 h; read-out: % Growth Inhibition (GI %)
How it was run: as §1

[6] = tested on: NCI/ADR-RES; settings: Homo sapiens; NCI/ADR-RES (Ovarian Cancer), 10^-5 M, 48 h; read-out: % Growth Inhibition (GI %)
How it was run: as §1

[7] = tested on: HCT-15; settings: Homo sapiens; HCT-15 (Colon Cancer), 10^-5 M, 48 h; read-out: % Growth Inhibition (GI %)
How it was run: as §1

[8] = tested on: TK-10; settings: Homo sapiens; TK-10 (Renal Cancer), 10^-5 M, 48 h; read-out: % Growth Inhibition (GI %)
[9] = tested on: SN12C; settings: Homo sapiens; SN12C (Renal Cancer), 10^-5 M, 48 h; read-out: % Growth Inhibition (GI %)
How it was run: as §1

[10] = tested on: CCRF-CEM; settings: Homo sapiens; CCRF-CEM (Leukemia), 10^-5 M, 48 h; read-out: % Growth Inhibition (GI %)
[11] = tested on: KM12; settings: Homo sapiens; KM12 (Colon Cancer), 10^-5 M, 48 h; read-out: % Growth Inhibition (GI %)
How it was run: as §1

[12] = tested on: SF-268; settings: Homo sapiens; SF-268 (CNS Cancer), 10^-5 M, 48 h; read-out: % Growth Inhibition (GI %)
[13] = tested on: MOLT-4; settings: Homo sapiens; MOLT-4 (Leukemia), 10^-5 M, 48 h; read-out: % Growth Inhibition (GI %)
How it was run: as §1

[14] = tested on: SF-295; settings: Homo sapiens; SF-295 (CNS Cancer), 10^-5 M, 48 h; read-out: % Growth Inhibition (GI %)
How it was run: as §1

[15] = tested on: SW-620; settings: Homo sapiens; SW-620 (Colon Cancer), 10^-5 M, 48 h; read-out: % Growth Inhibition (GI %)
[16] = tested on: OVCAR-4; settings: Homo sapiens; OVCAR-4 (Ovarian Cancer), 10^-5 M, 48 h; read-out: % Growth Inhibition (GI %)
How it was run: as §1

[17] = tested on: HCT-116; settings: Homo sapiens; HCT-116 (Colon Cancer), 10^-5 M, 48 h; read-out: % Growth Inhibition (GI %)
How it was run: as §1

[18] = tested on: MCF7; settings: Homo sapiens; MCF7 (Breast Cancer), 10^-5 M, 48 h; read-out: % Growth Inhibition (GI %)
How it was run: as §1

[19] = tested on: SK-MEL-2; settings: Homo sapiens; SK-MEL-2 (Melanoma), 10^-5 M, 48 h; read-out: % Growth Inhibition (GI %)
[20] = tested on: DU-145; settings: Homo sapiens; DU-145 (Prostate Cancer), 10^-5 M, 48 h; read-out: % Growth Inhibition (GI %)
How it was run: as §1

[21] = tested on: NCI-H522; settings: Homo sapiens; NCI-H522 (Non-Small Cell Lung Cancer), 10^-5 M, 48 h; read-out: % Growth Inhibition (GI %)
How it was run: as §1

[22] = tested on: PC-3; settings: Homo sapiens; PC-3 (Prostate Cancer), 10^-5 M, 48 h; read-out: % Growth Inhibition (GI %)
How it was run: as §1

[23] = tested on: IGROV1; settings: Homo sapiens, IGROV-1; IGROV1 (Ovarian Cancer), 10^-5 M, 48 h; read-out: % Growth Inhibition (GI %)
[24] = tested on: SK-MEL-5; settings: Homo sapiens; SK-MEL-5 (Melanoma), 10^-5 M, 48 h; read-out: % Growth Inhibition (GI %)
How it was run: as §1

[25] = tested on: UACC-62; settings: Homo sapiens; UACC-62 (Melanoma), 10^-5 M, 48 h; read-out: % Growth Inhibition (GI %)
How it was run: as §1

[26] = tested on: HOP-62; settings: Homo sapiens; HOP-62 (Non-Small Cell Lung Cancer), 10^-5 M, 48 h; read-out: % Growth Inhibition (GI %)
How it was run: as §1

Row | SMILES | inhibition at 10 µM [1] [%] | inhibition at 10 µM [2] [%] | inhibition at 10 µM [3] [%] | inhibition at 10 µM [4] [%] | inhibition at 10 µM [5] [%] | inhibition at 10 µM [6] [%] | inhibition at 10 µM [7] [%] | inhibition at 10 µM [8] [%] | inhibition at 10 µM [9] [%] | inhibition at 10 µM [10] [%] | inhibition at 10 µM [11] [%] | inhibition at 10 µM [12] [%] | inhibition at 10 µM [13] [%] | inhibition at 10 µM [14] [%] | inhibition at 10 µM [15] [%] | inhibition at 10 µM [16] [%] | inhibition at 10 µM [17] [%] | inhibition at 10 µM [18] [%] | inhibition at 10 µM [19] [%] | inhibition at 10 µM [20] [%] | further results
1 | CCn1cc(C(=O)O)c(=O)c2cc(F)c(N3CCN(S(=O)(=O)c4ccc(Cl)cc4)CC3)cc21 [Compound 1a] | 78.3 | 81.1 | 55.4 | 79.4 | 78.6 | 31.3 | 84.3 | 46.4 | 88.4 | > 100 | 95.7 | 77.3 | 76.4 | 96.1 | 76 | 62.3 | 95.2 | 85.7 | 56.2 | 68.3 | inhibition at 10 µM [21]: 91.6%; inhibition at 10 µM [22]: 74.7%; inhibition at 10 µM [23]: 90.6%; inhibition at 10 µM [24]: 73.4%; inhibition at 10 µM [25]: 78.5%
2 | CCn1cc(C(=O)O)c(=O)c2cc(F)c(N3CCN(S(=O)(=O)c4ccc(Cl)cc4Cl)CC3)cc21 [Compound 2a] | 91.4 | 84.1 | < 10 | 73.8 | 89.1 | 90.7 | 92.4 | 87.6 | 89.7 | 97.2 | 90.6 | 75.4 | 98.2 | > 100 | 83.7 | < 10 | 93.6 | 10.8 | > 100 | 88.4 | inhibition at 10 µM [26]: 80.5%; inhibition at 10 µM [21]: > 100%; inhibition at 10 µM [22]: 98.4%; inhibition at 10 µM [23]: 92.5%; inhibition at 10 µM [24]: > 100%; inhibition at 10 µM [25]: 83.8%
3 | O=C(O)c1cn(C2CC2)c2cc(N3CCN(S(=O)(=O)c4ccc(Cl)cc4Cl)CC3)c(F)cc2c1=O [Compound 2b] | < 10 | < 10 | 49.1 | < 10 | < 10 | < 10 | 16.2 | < 10 | 13.8 | 19 | < 10 | 16.4 | 24.1 | < 10 | < 10 | 35.9 | 13.4 | 82.4 | < 10 | < 10 | inhibition at 10 µM [26]: 11.8%; inhibition at 10 µM [21]: < 10%; inhibition at 10 µM [22]: 18.9%; inhibition at 10 µM [23]: < 10%; inhibition at 10 µM [24]: 79.8%; inhibition at 10 µM [25]: 14.6%
